The text below walks through data of patent US5084468A, “DC-88A derivatives” (Kyowa Hakko Kogyo Co., Ltd., priority 1988, dated 1992).

The subject of data set [1] is dd strain male mice. It is filed as in vivo. The conditions noted are these: intraperitoneal, 14 days observation. The procedure: Using dd strain male mice weighing 20±1 g, a test compound was intraperitoneally administered. MLD (the minimum lethal dose) was determined by observing the mortality for 14 days after administration.
For data set [2], the system named is HeLa S3 cells. Briefly: Growth inhibition of HeLa S3 cells (neutral red, 72 hours). The conditions noted are these: Homo sapiens, read-out: IC50 (drug concentration which inhibited growth of HeLa S3 cells by 50%). It is filed as cell-based. As to the method:
Test on Growth Inhibition of HeLa S3 cells
HeLa S3 cells diluted to 3 x 10^4 cells/ml with MEM medium containing 10% calf fetal serum and 2 mM glutamine were separately distributed by 0.1 ml each in each well of a 96 well microtiter plate.
After culturing at 37° C. overnight in a CO2 -incubator, 0.05 ml each of a test sample appropriately diluted with MEM medium was added to each well.
After culturing the cells for 72 hours in the CO2 -incubator, the culture supernatant was removed. After washing once with phosphate buffered physiological saline (PBS), 0.1 ml each of MEM medium containing 0.02% neutral red was added to each well and then cultured at 37° C. for an hour in the CO2 -incubator to stain the cells. After removing the culture supernatant, the cells were washed once with physiological saline, and the dye was extracted with 0.001N HCl/30% ethanol. Absorbance at […] of the extract was measured with a microplate reader. By comparing absorbance of extract of intact cells with that of the cells treated with a test compound in known concentrations, IC50, i.e. a drug concentration which inhibited growth of the cells by 50% was determined.

In data set [3] the test system is lymphocytic leukemia P388. The conditions noted are these: lymphocytic leukemia P388, etc.; cited from earlier work.
The test system of data set [4] is various bacteria. The conditions noted are these: cited from earlier work.
The mark [5] stands for this setting: HeLa S3 cells, 72 hours, neutral red staining.

pIC50: −log10 of the molar value. Like-named read-outs stand apart in the source and are kept apart here.

Consider `COC(=O)C1(C)NC2=C(C1=O)C13CC1CN(C(=O)c1cc4cc(NC(=O)OC(C)(C)C)ccc4[nH]1)C3=CC2=O` (stereo not shown) [Compound 32], for which the “Acute Toxicity (MLD), minimum lethal dose” value (shortened to “Acute Toxicity (MLD)”) in data set [1] is 0.25 mg/kg.

Consider `COC(=O)C1(C)Nc2c(O)cc3c(c2C1=O)C(CBr)CN3C(=O)Nc1ccccc1` (stereo not shown) [Compound 9], for which the pIC50 in data set [2] (setting [5]) is 8.59.

For the molecule `COC(=O)C1(C)Nc2c(O)cc3c(c2C1=O)C(CBr)CN3C(=O)/C=C/c1cccc(OC(C)=O)c1` (stereo not shown) [Compound 35], the pIC50 in data set [2] (HeLa S3, 72 h) is 9.03. In addition, the “Acute Toxicity (MLD)” value in data set [1] is 0.25 mg/kg.

For `COC(=O)C1(C)Nc2c(O)cc3c(c2C1=O)C(CBr)CN3C(=O)CCc1ccc(OC)c(OC)c1` (stereo not shown) [Compound 39], the “Acute Toxicity (MLD)” value in data set [1] is listed as 1.3 mg/kg.

With `COC(=O)C1(C)Nc2c(O)cc3c(c2C1=O)C(CBr)CN3C(=O)c1cc2cc(OC)c(OC)cc2[nH]1` (stereo not shown) [Compound 24], in data set [2] (HeLa S3, 72 h), the pIC50 is 10.62. The “Acute Toxicity (MLD)” value in data set [1] came out at 0.25 mg/kg.

As for `COC(=O)C1(C)Nc2c(O)cc3c(c2C1=O)C(CBr)CN3C(=O)c1cc2ccccc2o1` (stereo not shown) [Compound 4], in data set [2] (HeLa S3, 72 h), the pIC50 was 10.00. Besides, in data set [1], the “Acute Toxicity (MLD)” value was 0.25 mg/kg.

As for `COC(=O)C1(C)Nc2c(O)cc3c(c2C1=O)C(CI)CN3C(=O)c1cc2cc(OC)c(OC)c(OC)c2[nH]1` (stereo not shown) [Compound 5], the pIC50 in data set [2] (setting [5]) is 10.96.

Regarding `COC(=O)C1(C)NC2=C(C1=O)C13CC1CN(C(=O)c1cc4cc(OC)c(OC)cc4[nH]1)C3=CC2=O` (stereo not shown) [Compound 23], the pIC50 in data set [2] (setting [5]) is above 10.62.

As for `COC(=O)C1(C)Nc2c(O)cc3c(c2C1=O)C(CBr)CN3C(=O)/C=C/c1ccc(OC)cc1` (stereo not shown) [Compound 38], in data set [2] (HeLa S3, 72 h), the pIC50 was 10.46. Moreover, the “Acute Toxicity (MLD)” value in data set [1] is on record as 0.063 mg/kg.

As for `COC(=O)C1(C)NC2=C(C1=O)C13CC1CN(C(=O)/C=C/c1cccc(OC)c1)C3=CC2=O` (stereo not shown) [Compound 27], in data set [2] (setting [5]), the pIC50 was 9.22.

In the case of `COC(=O)C1(C)Nc2c(O)cc3c(c2C1=O)C(CBr)CN3C(=O)c1cc2cc(OC)ccc2[nH]1` (stereo not shown) [Compound 3], in data set [1], the “Acute Toxicity (MLD)” value was found to be 0.063 mg/kg.

As to `COC(=O)C1(C)Nc2c(O)cc3c(c2C1=O)C(CBr)CN3C(=O)/C=C/c1ccc(OC)c(OC)c1` (stereo not shown) [Compound 30], the pIC50 in data set [2] (HeLa S3, 72 h) was 10.47. The “Acute Toxicity (MLD)” value in data set [1] stood at 0.082 mg/kg.

For `COC(=O)C1(C)Nc2c(O)cc3c(c2C1=O)C(CBr)CN3C(=O)/C=C/c1ccc(N)cc1` (stereo not shown) [Compound 48], the pIC50 in data set [2] (setting [5]) was 8.92.

For the molecule `COC(=O)C1(C)Nc2c(O)cc3c(c2C1=O)C(CBr)CN3C(=O)c1cc2cc(NC(=O)c3cc4ccccc4[nH]3)ccc2[nH]1` (stereo not shown) [Compound 45], the pIC50 in data set [2] (HeLa S3, 72 h) is 8.96. For the same molecule, the “Acute Toxicity (MLD)” value in data set [1] amounted to 0.63 mg/kg.

Consider `COC(=O)C1(C)NC2=C(C1=O)C13CC1CNC3=CC2=O` (stereo not shown) [Compound 18], for which, in data set [2] (setting [5]), the pIC50 is 5.41.

For `COC(=O)C1(C)Nc2c(O)cc3c(c2C1=O)C(CBr)CN3C(=O)CNc1ccccc1` (stereo not shown) [Compound 19], the “Acute Toxicity (MLD)” value in data set [1] came out at 2.5 mg/kg.

As to `COC(=O)C1(C)NC2=C(C1=O)C13CC1CN(C(=O)c1cc4ccccc4s1)C3=CC2=O` (stereo not shown) [Compound 25], in data set [2] (setting [5]), the pIC50 was 8.12.

Consider `COC(=O)C1(C)NC2=C(C1=O)C13CC1CN(C(=O)/C=C/c1ccccc1)C3=CC2=O` (stereo not shown) [Compound 6], for which the pIC50 in data set [2] (setting [5]) is 8.64.

On to `COC(=O)C1(C)Nc2c(O)cc3c(c2C1=O)C(CBr)CN3C(=O)c1cc2ccccc2[nH]1` (stereo not shown) [Compound 2], for which the pIC50 in data set [2] (HeLa S3, 72 h) is 10.27. In addition, in data set [1], the “Acute Toxicity (MLD)” value worked out at 0.25 mg/kg.

Regarding `COC(=O)C1(C)Nc2c(O)cc3c(c2C1=O)C(CBr)CN3C(=O)/C=C/c1ccc(NC(C)=O)cc1` (stereo not shown) [Compound 37], the pIC50 in data set [2] (setting [5]) is 9.13.

Turning to `COC(=O)C1(C)Nc2c(O)cc3c(c2C1=O)C(CBr)CN3C(=O)COc1ccccc1` (stereo not shown) [Compound 15], in data set [2] (HeLa S3, 72 h), the pIC50 is 8.51. Besides, the “Acute Toxicity (MLD)” value in data set [1] is on record as 4.0 mg/kg.

Take `COC(=O)C1(C)Nc2c(O)cc3c(c2C1=O)C(CBr)CN3C(=O)/C=C/c1ccc(NC(=O)OCc2ccccc2)cc1` (stereo not shown) [Compound 36]: in data set [1], the “Acute Toxicity (MLD)” value was 1.3 mg/kg.

Regarding `COC(=O)C1(C)NC2=C(C1=O)C13CC1CN(C(=O)c1cc4ccccc4[nH]1)C3=CC2=O` (stereo not shown) [Compound 1], the pIC50 in data set [2] (setting [5]) is 8.96.

As for `COC(=O)C1(C)Nc2c(O)cc3c(c2C1=O)C(CBr)CN3C(=O)c1cc2cc(NC(=O)c3cc4ccccc4o3)ccc2[nH]1` (stereo not shown) [Compound 46], in data set [2] (HeLa S3, 72 h), the pIC50 was 9.40. For the same molecule, the “Acute Toxicity (MLD)” value in data set [1] is recorded as 0.63 mg/kg.

With `COC(=O)C1(C)Nc2c(O)cc3c(c2C1=O)C(CBr)CN3C(=O)/C=C/c1ccc(N(C)C)cc1` (stereo not shown) [Compound 40], the pIC50 in data set [2] (HeLa S3, 72 h) is 10.07. For the same molecule, the “Acute Toxicity (MLD)” value in data set [1] was determined as 0.31 mg/kg.

`COC(=O)C1(C)Nc2c(O)cc3c(c2C1=O)C(CBr)CN3C(=O)/C=C/c1ccc(C=O)cc1` (stereo not shown) [Compound 42]: the “Acute Toxicity (MLD)” value in data set [1] stood at 2.5 mg/kg.

For the molecule `COC(=O)C1(C)Nc2c(O)cc3c(c2C1=O)C(CBr)CN3C(=O)C1Cc2ccccc2N1` (stereo not shown) [Compound 31], in data set [2] (setting [5]), the pIC50 is 7.09. Also, the “Acute Toxicity (MLD)” value in data set [1] was determined as 20 mg/kg.

Turning to `COC(=O)C1(C)NC2=C(C1=O)C13CC1CN(C(=O)c1cc4cc(OC)c(OC)c(OC)c4[nH]1)C3=CC2=O` (stereo not shown) [DC-88A], the “antitumor activity against lymphocytic leukemia P388” value in data set [3] was “antitumor activity against lymphocytic leukemia P388”. For the same molecule, the antibacterial activity result in data set [4] is listed as “antibacterial activity against various bacteria”.

For the molecule `COC(=O)C1(C)NC2=C(C1=O)C13CC1CN(C(=O)/C=C/c1ccc(OC)c(OC)c1)C3=CC2=O` (stereo not shown) [Compound 29], the pIC50 in data set [2] (HeLa S3, 72 h) is above 10.62.

With `COC(=O)C1(C)Nc2c(O)cc3c(c2C1=O)C(CBr)CN3C(C)=O` (stereo not shown) [Compound 22], the “Acute Toxicity (MLD)” value in data set [1] is on record as 13 mg/kg.

With `COC(=O)C1(C)Nc2c(O)cc3c(c2C1=O)C(CBr)CN3C(=O)/C=C/c1ccccc1` (stereo not shown) [Compound 7], the pIC50 in data set [2] (HeLa S3, 72 h) is 8.24. Moreover, the “Acute Toxicity (MLD)” value in data set [1] is on record as 1.0 mg/kg.

`COC(=O)C1(C)Nc2c(O)cc3c(c2C1=O)C(CBr)CN3C(=O)c1cc2ccccc2s1` (stereo not shown) [Compound 26]: in data set [1], the “Acute Toxicity (MLD)” value was 2.2 mg/kg.

On to `COC(=O)C1(C)Nc2c(O)cc3c(c2C1=O)C(CBr)CN3C(=O)/C=C/c1cccc(OC)c1` (stereo not shown) [Compound 28], for which the pIC50 in data set [2] (HeLa S3, 72 h) is 8.60. In addition, the “Acute Toxicity (MLD)” value in data set [1] is 0.16 mg/kg.

Turning to `COC(=O)C1(C)Nc2c(O)cc3c(c2C1=O)C(CBr)CN3C(=O)c1cc2cc(N)ccc2[nH]1` (stereo not shown) [Compound 33], in data set [2] (setting [5]), the pIC50 was 9.06.

Take `COC(=O)C1(C)NC2=C(C1=O)C13CC1CN(C(=O)Nc1ccccc1)C3=CC2=O` (stereo not shown) [Compound 8]: in data set [2] (setting [5]), the pIC50 was 8.49.

As to `COC(=O)C1(C)Nc2c(O)cc3c(c2C1=O)C(CBr)CN3C(=O)c1cc2cc(OC)c(OCc3ccccc3)c(OC)c2[nH]1` (stereo not shown) [Compound 55], the pIC50 in data set [2] (HeLa S3, 72 h) was 9.28. For the same molecule, the “Acute Toxicity (MLD)” value in data set [1] stood at 0.25 mg/kg.

`COC(=O)C1(C)NC2=C(C1=O)C13CC1CN(C(=O)COc1ccccc1)C3=CC2=O` (stereo not shown) [Compound 14]: the pIC50 in data set [2] (setting [5]) was 8.17.

Regarding `COC(=O)C1(C)Nc2c(O)cc3c(c2C1=O)C(CBr)CN3C(=O)c1cc2cc(OC)ccc2o1` (stereo not shown) [Compound 34], the pIC50 in data set [2] (HeLa S3, 72 h) was 10.30. Moreover, in data set [1], the “Acute Toxicity (MLD)” value is given as 0.063 mg/kg.

Consider `COC(=O)C1(C)Nc2c(O)cc3c(c2C1=O)C(CBr)CN3C(=O)/C=C/c1ccc([N+](=O)[O-])cc1` (stereo not shown) [Compound 41], for which, in data set [1], the “Acute Toxicity (MLD)” value turned out to be 1.3 mg/kg.
